Source: patent US10590082B2, “N-(5-((aryl or heteroaryl)methyloxy)pentyl)-substituted iminosugars as inhibitors of glucosylceramide synthase” (Academisch Medisch Centrum, priority 2014, dated 2020)
Where two headings read alike, the source gives them in different places.

Experiments:
intestinal glycosidases = conditions: background statement; cited from earlier work
GBA1 = biological target: T1, GBA1 (Homo sapiens, UniProt P04062, R534H); experiment: GBA1 activity, recombinant human enzyme (Cerezyme), 4-MU-β-glucoside substrate; assay type: biochemical;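 note: enzyme activity read out as fluorescence of the 4-MU released from the substrate, measured on a fluorimeter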
T1 construct: purchased Sanofi (Cerezyme)
T1 sequence (P04062 40-536 R534H): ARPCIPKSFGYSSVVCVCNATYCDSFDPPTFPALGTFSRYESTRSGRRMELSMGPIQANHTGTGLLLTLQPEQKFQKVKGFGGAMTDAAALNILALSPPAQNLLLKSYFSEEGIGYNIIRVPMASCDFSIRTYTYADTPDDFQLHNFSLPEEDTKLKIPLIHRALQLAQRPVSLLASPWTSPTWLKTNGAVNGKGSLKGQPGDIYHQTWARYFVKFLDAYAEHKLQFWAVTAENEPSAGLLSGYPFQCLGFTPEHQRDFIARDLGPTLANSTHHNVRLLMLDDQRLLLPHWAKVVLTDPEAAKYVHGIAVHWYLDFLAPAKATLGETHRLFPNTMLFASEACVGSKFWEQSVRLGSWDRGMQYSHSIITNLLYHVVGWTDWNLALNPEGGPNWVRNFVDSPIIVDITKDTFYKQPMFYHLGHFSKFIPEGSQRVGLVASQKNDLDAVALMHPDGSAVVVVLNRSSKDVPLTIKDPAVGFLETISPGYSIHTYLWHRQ

GBA2 = biological target: T2, GBA2 (Homo sapiens, UniProt Q9HCG7); experiment: GBA2 activity, membrane fraction from Gaucher spleen, 4-MU-β-glucoside substrate; assay type: biochemical;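 note: Read-out is fluorimetric quantification of released 4-MU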
T2 construct: measured using a membrane fraction obtained from Gaucher spleen; from tissue; host or cells: membrane fraction of Gaucher spleen, pre-treated with conduritol B-epoxide
T2 sequence (Q9HCG7 1-927): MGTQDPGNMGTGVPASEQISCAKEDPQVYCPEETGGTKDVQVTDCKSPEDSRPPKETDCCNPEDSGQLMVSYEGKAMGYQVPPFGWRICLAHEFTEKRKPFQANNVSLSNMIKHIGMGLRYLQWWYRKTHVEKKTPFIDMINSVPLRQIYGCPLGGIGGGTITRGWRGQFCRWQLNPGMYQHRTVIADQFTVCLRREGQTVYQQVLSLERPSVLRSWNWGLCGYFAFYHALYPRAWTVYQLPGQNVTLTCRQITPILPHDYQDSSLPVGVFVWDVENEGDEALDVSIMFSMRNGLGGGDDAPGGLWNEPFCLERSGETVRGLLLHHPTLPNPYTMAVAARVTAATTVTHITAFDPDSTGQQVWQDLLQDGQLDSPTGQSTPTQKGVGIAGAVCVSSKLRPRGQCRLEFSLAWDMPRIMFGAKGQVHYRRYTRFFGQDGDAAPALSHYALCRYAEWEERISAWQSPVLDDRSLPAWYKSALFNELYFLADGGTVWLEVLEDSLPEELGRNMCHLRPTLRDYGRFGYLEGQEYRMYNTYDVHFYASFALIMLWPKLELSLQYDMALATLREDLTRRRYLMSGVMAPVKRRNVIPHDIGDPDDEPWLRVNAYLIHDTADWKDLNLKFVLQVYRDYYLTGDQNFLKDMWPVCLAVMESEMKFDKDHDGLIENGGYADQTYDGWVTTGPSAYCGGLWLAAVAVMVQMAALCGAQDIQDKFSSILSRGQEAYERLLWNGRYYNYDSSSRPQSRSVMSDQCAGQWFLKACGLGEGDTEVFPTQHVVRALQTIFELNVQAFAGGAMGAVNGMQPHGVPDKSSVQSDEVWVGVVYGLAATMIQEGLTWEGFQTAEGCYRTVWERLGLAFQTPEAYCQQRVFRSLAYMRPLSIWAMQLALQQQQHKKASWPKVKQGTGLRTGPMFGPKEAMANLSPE

[1] = biological target: T3, glucosylceramide synthase (GCS) (Mus musculus, UniProt O88693); experiment: GCS activity in living macrophage  cells (C6-NBD lipid, TLC readout); assay type: cell-based; conditions: read-out: GCS [nM] (IC50)
T3 construct: IC50 values for GCS activity were measured using living cells; endogenous in cells
T3 sequence (O88693 1-394): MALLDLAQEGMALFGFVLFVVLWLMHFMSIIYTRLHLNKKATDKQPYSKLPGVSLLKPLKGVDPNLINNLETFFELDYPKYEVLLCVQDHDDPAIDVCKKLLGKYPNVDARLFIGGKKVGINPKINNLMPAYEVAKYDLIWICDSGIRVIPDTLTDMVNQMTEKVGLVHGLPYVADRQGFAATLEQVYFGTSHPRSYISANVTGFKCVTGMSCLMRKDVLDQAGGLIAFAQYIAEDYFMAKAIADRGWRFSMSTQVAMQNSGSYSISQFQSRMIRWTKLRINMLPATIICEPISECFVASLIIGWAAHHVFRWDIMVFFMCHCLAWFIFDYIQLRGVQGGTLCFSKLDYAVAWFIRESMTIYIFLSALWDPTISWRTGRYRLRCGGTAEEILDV

[2] = L-ido configuration series, Example 4
[3] = D-gluco configuration series, Example 3

Compound | inhibitory activity against the intestinal glycosidases (intestinal glycosidases) | IC50 (GBA1) [nM] | IC50 (GBA2) [nM] | IC50 [1] [nM] | IC50 (GBA2; [2]) [nM] | IC50 (GBA2; [3]) [nM]
OC[C@H]1[C@@H](O)[C@H](O)[C@@H](O)CN1CCCCCOCC12CC3CC(CC(C3)C1)C2 [Compound 2, (adamantanemethyloxypentyl)-L-ido-deoxynojirimycin] | little to no inhibitory activity |  |  |  |  | 
OC[C@@H]1[C@@H](O)[C@H](O)[C@@H](O)CN1CC(F)(F)CCCOCc1ccc(-c2ccccc2)cc1 [Compound 11] |  | 500 | 2 | 200 |  | 
OC[C@H]1[C@@H](O)[C@H](O)[C@@H](O)CN1CCCC(F)(F)COCc1ccc(-c2ccccc2)cc1 [Compound 43] |  | 12500 |  | 15 | 2 | 
OC[C@@H]1[C@@H](O)[C@H](O)[C@@H](O)CN1CCCCCOCc1ccc(-c2ccc3c(c2)OCO3)cc1 [Compound 21] |  | 2500 | 10 | 25 |  | 
OC[C@H]1[C@@H](O)[C@H](O)[C@@H](O)CN1CCCCCOCc1ccc(-c2ccccc2)c(C(F)(F)F)c1 [Compound 45] |  | 6000 |  | 3 | 0.1 | 
Cc1cccc(-c2ccc(COCCCCCN3C[C@H](O)[C@@H](O)[C@H](O)[C@H]3CO)cc2)c1 [Compound 35] |  | 250 |  | 100 |  | 2
Cc1ccc(-c2ccc(COCCCCCN3C[C@H](O)[C@@H](O)[C@H](O)[C@H]3CO)cc2)cc1 [Compound 36] |  | 250 |  | 100 |  | 3
COc1ccc(-c2ccc(COCCCCCN3C[C@H](O)[C@@H](O)[C@H](O)[C@H]3CO)cc2)cc1 [Compound 33] |  | 2500 |  | 25 |  | 10
